Laboratory results as given in patent US20230159509A1 (Amathus Therapeutics, Inc., priority 2020, published 2023).

Target: T1, TRAP1 enzyme (Homo sapiens, UniProt Q12931)
T1 construct: 150 nM Trap1 enzyme was incubated with various concentrations of the test compound
T1 sequence (Q12931 60-704): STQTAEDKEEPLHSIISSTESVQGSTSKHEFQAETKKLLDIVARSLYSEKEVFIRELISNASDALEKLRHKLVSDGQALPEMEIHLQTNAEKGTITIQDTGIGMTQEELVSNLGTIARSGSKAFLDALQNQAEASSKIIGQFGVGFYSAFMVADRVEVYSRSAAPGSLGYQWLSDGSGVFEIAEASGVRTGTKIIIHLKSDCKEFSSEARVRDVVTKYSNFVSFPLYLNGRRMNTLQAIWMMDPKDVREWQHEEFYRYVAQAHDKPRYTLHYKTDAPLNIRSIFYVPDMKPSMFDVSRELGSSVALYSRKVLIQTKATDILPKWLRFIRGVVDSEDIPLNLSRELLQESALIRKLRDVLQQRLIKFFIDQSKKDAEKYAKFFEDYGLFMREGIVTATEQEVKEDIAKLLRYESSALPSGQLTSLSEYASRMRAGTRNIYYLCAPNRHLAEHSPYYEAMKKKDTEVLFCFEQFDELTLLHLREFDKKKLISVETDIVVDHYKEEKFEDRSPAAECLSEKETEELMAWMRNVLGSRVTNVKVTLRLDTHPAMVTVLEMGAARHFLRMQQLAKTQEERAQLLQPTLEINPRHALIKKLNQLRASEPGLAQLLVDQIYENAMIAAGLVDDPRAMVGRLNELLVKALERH
Experiment: ADP Glo assay of TRAP1 ATPase activity
Format: biochemical
Conditions: for EC50: concentration for half maximal activation, read-out: ADP GLO DRC: GeoMean EC50; for Emax: maximal percent activation, read-out: ADP GLO DRC: Mean Emax
Experimental: Potency of test compounds to modulate the ATPase activity of TRAP1 enzyme was evaluated using ADP Glo assay. The assay is based on quantification of the ADP generated from ATP in the ATPase reaction. The assay is performed in two steps; first, after the ATPase reaction an equal volume of ADP-Glo™ Reagent is added to terminate the ATPase reaction and deplete the remaining ATP. Second, the Kinase Detection Reagent is added to simultaneously convert ADP to ATP and allow the newly synthesized ATP to be measured using a luciferase/luciferin reaction.
All the assays were carried out in a 384-well Proxiplate. The buffer used was 25 mM Pipes pH-7.5, 40 mM KCl, 0.05 mM MgCl2, 0.025% BSA, 0.316 mM EGTA, 0.003% Empigen, 0.01% Igepal. 150 nM Trap1 enzyme was incubated with various concentrations of the test compound (0.79 μM-100 μM) at 37° C. for 30 mins (except in blank wells). 20 μM ATP was added to each well to start the reaction. The plate was spun for 1 min at 1200 rpm and then incubated at 37° C. for 60 mins. 5 μl of ADP Glo reagent was added to all the wells and spun the plate for 1 min at 1200 rpm and kept it on a shaker at ambient temperature for 60 mins. 10 μl of kinase detection mix was added to all the wells and the plate was read for Luminescence at 495 nm. The amount of ADP released was estimated from ATP/ADP standard curve generated at the same experimental conditions. Emax (Maximal percent activation) and EC50 (concentration for half maximal activation) were estimated by fitting the dose response data to a sigmoidal curve fitting equation using Graphpad Prism software V. 8.

| SMILES | EC50 [µM] | Emax [%] |
| --- | --- | --- |
| COc1ncc(NC(=O)c2csc(-c3ccccc3)n2)cc1S(=O)(=O)Nc1c(C)cc(Cl)cc1C [compound 1388, N-(5-(N-(4-chloro-2,6-dimethylphenyl)sulfamoyl)-6-methoxypyridin-3-yl)-2-phenylthiazole-4-carboxamide] | 10 to 20 | 119 to 159 |
| COc1ncc(NC(=O)c2csc(-c3ccccc3)n2)cc1S(=O)(=O)Nc1c(C)cc(F)cc1C [compound 1389, N-(5-(N-(4-fluoro-2,6-dimethylphenyl)sulfamoyl)-6-methoxypyridin-3-yl)-2-phenylthiazole-4-carboxamide] | < 10 | 119 to 159 |
| Cc1cnc(NC(=O)c2ncc(-c3ccccc3)o2)cc1S(=O)(=O)Nc1ccc(Cl)cc1 [compound 1390, N-(4-(N-(4-chlorophenyl)sulfamoyl)-5-methylpyridin-2-yl)-5-phenyloxazole-2-carboxamide] | 10 to 20 | 160 to 199 |
| CCc1cccc(C)c1NS(=O)(=O)c1cc(NC(=O)c2csc(-c3ccccc3)n2)cnc1OC [compound 1393, N-(5-(N-(2-ethyl-6-methylphenyl)sulfamoyl)-6-methoxypyridin-3-yl)-2-phenylthiazole-4-carboxamide] | < 10 | 119 to 159 |
| COc1ncc(NC(=O)c2csc(-c3ccccc3)n2)cc1S(=O)(=O)Nc1cccc(C#N)c1C [compound 1406, N-(5-(N-(3-cyano-2-methylphenyl)sulfamoyl)-6-methoxypyridin-3-yl)-2-phenylthiazole-4-carboxamide] | < 10 | 119 to 159 |
| COc1ncc(NC(=O)c2csc(-c3ccccc3)n2)cc1S(=O)(=O)Nc1c(C)nn(C)c1C [compound 1417, N-(6-methoxy-5-(N-(1,3,5-trimethyl-1H-pyrazol-4-yl)sulfamoyl)pyridin-3-yl)-2-phenylthiazole-4-carboxamide] | 20 to 100 | 200 to 300 |
| CCc1cccc(CC)c1NS(=O)(=O)c1cc(NC(=O)c2csc(-c3ccccc3)n2)cnc1OC [compound 1418, N-(5-(N-(2,6-diethylphenyl)sulfamoyl)-6-methoxypyridin-3-yl)-2-phenylthiazole-4-carboxamide] | < 10 | 119 to 159 |
| Cc1c[n+]([O-])c(NC(=O)c2ncc(-c3ccccc3)o2)cc1S(=O)(=O)Nc1ccc(Cl)cc1 [compound 1420, 4-(N-(4-chlorophenyl)sulfamoyl)-5-methyl-2-(5-phenyloxazole-2-carboxamido) pyridine 1-oxide] | 10 to 20 | 119 to 159 |
| COc1ncc(NC(=O)c2cnc(-c3ccccc3)[nH]2)cc1S(=O)(=O)Nc1ccc(Cl)cc1 [compound 1481, N-(5-(N-(4-chlorophenyl)sulfamoyl)-6-methoxypyridin-3-yl)-2-phenyl-1H-imidazole-5-carboxamide] | 10 to 20 | 160 to 199 |
| COc1cccc(C)c1NS(=O)(=O)c1cc(NC(=O)c2coc(-c3ccccc3)n2)cnc1OC [compound 1484, N-(6-methoxy-5-(N-(2-methoxy-6-methylphenyl)sulfamoyl)pyridin-3-yl)-2-phenyloxazole-4-carboxamide] | < 10 | 160 to 199 |
| COc1ncc(NC(=O)c2coc(-c3ccccc3)n2)cc1S(=O)(=O)Nc1c(C)cccc1F [compound 1485, N-(5-(N-(2-fluoro-6-methylphenyl)sulfamoyl)-6-methoxypyridin-3-yl)-2-phenyloxazole-4-carboxamide] | < 10 | 119 to 159 |
| COc1ncc(NC(=O)c2ncc(-c3ccccc3)o2)cc1S(=O)(=O)Nc1cc(F)c(F)cc1F [compound 1503] | 20 to 100 | 160 to 199 |
| COc1ncc(NC(=O)c2ncc(-c3ccccc3)o2)cc1S(=O)(=O)Nc1cc2ccccc2nc1C [compound 1511] | 20 to 100 | 119 to 159 |
| COc1ncc(NC(=O)c2ncc(-c3ccccc3)o2)cc1S(=O)(=O)Nc1cccc2cncc(C)c12 [compound 1513] | < 10 | 160 to 199 |

Results, then the molecule that gave them:

| EC50 [µM] | Emax [%] | SMILES |
| --- | --- | --- |
| 20 to 100 | 160 to 199 | COc1ncc(NC(=O)c2cccc3ncn(C)c23)cc1S(=O)(=O)Nc1c(C)cccc1C [compound 1394, N-(5-(N-(2,6-dimethylphenyl)sulfamoyl)-6-methoxypyridin-3-yl)-1-methyl-1H-benzo[d]imidazole-7-carboxamide] |
| 20 to 100 | 200 to 300 | COc1ncc(NC(=O)c2cn(C)c3ncccc23)cc1S(=O)(=O)Nc1c(C)cccc1C [compound 1395, N-(5-(N-(2,6-dimethylphenyl)sulfamoyl)-6-methoxypyridin-3-yl)-1-methyl-1H-pyrrolo[2,3-b]pyridine-3-carboxamide] |
| 10 to 20 | 160 to 199 | COc1ncc(NC(=O)c2scc(C)c2Cl)cc1S(=O)(=O)Nc1c(C)cccc1C [compound 1398] |
| 10 to 20 | 200 to 300 | COc1ncc(NC(=O)c2ccc3nc(C)sc3c2)cc1S(=O)(=O)Nc1c(C)cccc1C [compound 1400, N-(5-(N-(2,6-dimethylphenyl)sulfamoyl)-6-methoxypyridin-3-yl)-2-methylbenzo[d]thiazole-6-carboxamide] |
| 10 to 20 | 160 to 199 | COc1ncc(NC(=O)c2cccc(-c3noc(C)n3)c2)cc1S(=O)(=O)Nc1c(C)cccc1C [compound 1401, N-(5-(N-(2,6-dimethylphenyl)sulfamoyl)-6-methoxypyridin-3-yl)-3-(5-methyl-1,2,4-oxadiazol-3-yl)benzamide] |
| 10 to 20 | 160 to 199 | COc1ncc(NC(=O)c2ccc(Cn3cc(Cl)cn3)cc2)cc1S(=O)(=O)Nc1c(C)cccc1C [compound 1402, 4-((4-chloro-1H-pyrazol-1-yl)methyl)-N-(5(N (2,6dimethylphenyl)sulfamoyl)-6-methoxypyridin-3-yl)benzamide] |
| 20 to 100 | > 300 | COc1ncc(NC(=O)c2cnc3n2CCCC3)cc1S(=O)(=O)Nc1c(C)cccc1C [compound 1404, N-(5-(N-(2,6-dimethylphenyl)sulfamoyl)-6-methoxypyridin-3-yl)-5,6,7,8-tetrahydroimidazo[1,2-a]pyridine-3-carboxamide] |
| < 10 | 119 to 159 | COc1ncc(NC(=O)c2csc(-c3ccc(F)cc3)n2)cc1S(=O)(=O)Nc1c(C)cccc1C [compound 1413, N-(5-(N-(2,6-dimethylphenyl)sulfamoyl)-6-methoxypyridin-3-yl)-2-(4-fluorophenyl)thiazole-4-carboxamide] |
| < 10 | 200 to 300 | COc1ncc(NC(=O)c2noc3ccccc23)cc1S(=O)(=O)Nc1c(C)cccc1C [compound 1421, N-(5-(N-(2,6-dimethylphenyl)sulfamoyl)-6-methoxypyridin-3-yl) benzo[d]isoxazole-3-carboxamide] |
| < 10 | 160 to 199 | COc1ncc(NC(=O)c2nn(C)c3ccccc23)cc1S(=O)(=O)Nc1c(C)cccc1C [compound 1423, N-(5-(N-(2,6-dimethylphenyl)sulfamoyl)-6-methoxypyridin-3-yl)-1-methyl-1H-indazole-3-carboxamide] |
| 10 to 20 | 200 to 300 | COc1ncc(NC(=O)c2nn(C)c3c2CCCC3)cc1S(=O)(=O)Nc1c(C)cccc1C [compound 1424, N-(5-(N-(2,6-dimethylphenyl)sulfamoyl)-6-methoxypyridin-3-yl)-1-methyl-4,5,6,7-tetrahydro-1H-indazole-3-carboxamide] |
| < 10 | 160 to 199 | COc1ncc(NC(=O)c2csc3c2CCC3)cc1S(=O)(=O)Nc1c(C)cccc1C [compound 1425, N-(5-(N-(2,6-dimethylphenyl)sulfamoyl)-6-methoxypyridin-3-yl)-5,6-dihydro-4H-cyclopenta[b]thiophene-3-carboxamide] |
| < 10 | 160 to 199 | COc1ncc(NC(=O)c2csc3c2CCCCC3)cc1S(=O)(=O)Nc1c(C)cccc1C [compound 1486, N-(5-(N-(2,6-dimethylphenyl)sulfamoyl)-6-methoxypyridin-3-yl)-5,6,7,8-tetrahydro-4H-cyclohepta[b]thiophene-3-carboxamide] |
